This is an account of results in US20250154109A1, “SODIUM CHANNEL BLOCKING COMPOUNDS, DERIVATIVES THEREOF, AND METHODS OF THEIR USE” (LATIGO BIOTHERAPEUTICS, INC, priority 2022, published 2025).

The structures appear in SMILES notation. Read-outs that look alike come from different tables or passages of the source. Some results are limits rather than exact numbers.

This assay has as its target human Nav1.8 (Homo sapiens, UniProt Q9Y5Y9). As to the kind of experiment: SyncroPatch384PE assay (automated patch clamp). It counts as cell-based. The following applies: human Nav1.8/b3 CHO cells. A general note: Patch clamp records ionic current or voltage across a cell membrane.
[1] abbreviates: inactivated state block (P2 measurement), read-out: P2 IC50.
The mark [2] stands for this setting: resting state block (P1 measurement), read-out: P1 IC50.

Chain of human Nav1.8 (Q9Y5Y9 whole entry): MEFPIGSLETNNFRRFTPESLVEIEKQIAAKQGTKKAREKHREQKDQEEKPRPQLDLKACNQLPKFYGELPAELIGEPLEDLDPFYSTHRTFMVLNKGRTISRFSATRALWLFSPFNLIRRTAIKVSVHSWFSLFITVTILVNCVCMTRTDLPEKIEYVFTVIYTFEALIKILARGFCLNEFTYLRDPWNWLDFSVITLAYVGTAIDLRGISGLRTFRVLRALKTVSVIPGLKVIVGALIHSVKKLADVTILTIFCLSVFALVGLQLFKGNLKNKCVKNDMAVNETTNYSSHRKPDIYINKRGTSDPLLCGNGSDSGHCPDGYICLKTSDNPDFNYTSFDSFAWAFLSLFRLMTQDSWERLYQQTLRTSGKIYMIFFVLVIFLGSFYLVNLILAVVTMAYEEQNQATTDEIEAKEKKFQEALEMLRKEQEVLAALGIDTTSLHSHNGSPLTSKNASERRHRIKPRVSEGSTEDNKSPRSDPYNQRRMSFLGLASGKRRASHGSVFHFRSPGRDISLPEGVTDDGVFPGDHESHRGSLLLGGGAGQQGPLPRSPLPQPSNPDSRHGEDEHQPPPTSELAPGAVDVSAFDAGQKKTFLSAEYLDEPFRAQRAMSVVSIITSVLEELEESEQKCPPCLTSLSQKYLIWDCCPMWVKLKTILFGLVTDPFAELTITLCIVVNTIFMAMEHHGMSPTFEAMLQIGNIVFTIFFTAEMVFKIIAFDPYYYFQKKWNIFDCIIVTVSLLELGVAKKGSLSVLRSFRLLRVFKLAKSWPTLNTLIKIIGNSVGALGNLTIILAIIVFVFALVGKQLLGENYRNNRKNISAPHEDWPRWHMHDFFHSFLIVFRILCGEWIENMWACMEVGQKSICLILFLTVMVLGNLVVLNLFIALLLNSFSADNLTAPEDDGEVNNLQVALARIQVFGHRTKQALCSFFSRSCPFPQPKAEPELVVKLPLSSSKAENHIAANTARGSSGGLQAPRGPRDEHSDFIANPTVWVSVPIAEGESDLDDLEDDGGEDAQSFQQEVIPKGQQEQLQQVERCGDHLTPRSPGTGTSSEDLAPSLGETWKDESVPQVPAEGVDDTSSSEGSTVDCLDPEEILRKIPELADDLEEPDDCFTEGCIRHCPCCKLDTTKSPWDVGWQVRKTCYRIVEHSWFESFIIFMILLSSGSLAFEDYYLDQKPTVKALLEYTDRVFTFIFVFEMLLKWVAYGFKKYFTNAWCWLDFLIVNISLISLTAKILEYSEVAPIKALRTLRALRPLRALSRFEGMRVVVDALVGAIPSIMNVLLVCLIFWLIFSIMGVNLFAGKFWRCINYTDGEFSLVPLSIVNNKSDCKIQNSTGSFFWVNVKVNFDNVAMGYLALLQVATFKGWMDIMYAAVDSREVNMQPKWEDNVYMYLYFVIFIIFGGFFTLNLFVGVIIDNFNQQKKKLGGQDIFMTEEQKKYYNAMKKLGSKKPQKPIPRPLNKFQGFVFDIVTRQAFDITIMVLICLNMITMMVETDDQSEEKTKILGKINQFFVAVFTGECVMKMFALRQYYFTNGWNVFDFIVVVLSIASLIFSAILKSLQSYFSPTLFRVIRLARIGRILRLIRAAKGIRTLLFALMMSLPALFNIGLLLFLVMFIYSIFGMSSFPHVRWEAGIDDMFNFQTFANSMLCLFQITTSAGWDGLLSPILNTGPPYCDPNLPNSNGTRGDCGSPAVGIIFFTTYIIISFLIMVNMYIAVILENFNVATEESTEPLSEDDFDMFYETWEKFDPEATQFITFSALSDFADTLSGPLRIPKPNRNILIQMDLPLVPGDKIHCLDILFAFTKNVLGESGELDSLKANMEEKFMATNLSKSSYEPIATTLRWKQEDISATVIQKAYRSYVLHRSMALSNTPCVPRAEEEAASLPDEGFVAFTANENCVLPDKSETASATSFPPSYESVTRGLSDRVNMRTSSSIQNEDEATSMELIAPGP

Broadly, the IC50 is the concentration that inhibits the measured activity by half. On to `Cc1c(C2CC2)nnc(N2CCCC(F)(F)CC2)c1C(=O)Nc1cccc(S(C)(=N)=O)c1` (stereo not shown) [Example 22, 6-cyclopropyl-3-(4,4-difluoroazepan-1-yl)-5-methyl-N-(3-(S-methylsulfonimidoyl)phenyl)pyridazine-4-carboxamide], for which the IC50 reads like this: under setting [1], above 200 nM; under setting [2], above 200 nM.
In the case of `Cc1nc(N2CCC3(CC2)CC3)c(C(=O)Nc2cccc(S(C)(=N)=O)c2)cc1Cl` (stereo not shown) [Example 12, 5-chloro-6-methyl-N-(3-(S-methylsulfonimidoyl)phenyl)-2-(6-azaspiro[2.5]octan-6-yl)nicotinamide], the IC50 by setting is: under setting [1], at most 5 nM; under setting [2], at most 5 nM.
Take `O=C(Nc1cc[nH]c(=O)c1)c1nnc(C(F)(F)F)cc1N1CCCC(F)(F)CC1` [Example 40, 4-(4,4-Difluoroazepan-1-yl)-N-(2-oxo-1,2-dihydropyridin-4-yl)-6-(trifluoromethyl)pyridazine-3-carboxamide]: the 50% inhibitory concentration (IC50) by setting is: under setting [1], above 200 nM; under setting [2], above 200 nM.
Take `CNCC(=O)N=[S@](C)(=O)c1cccc(NC(=O)c2c(N3CCCC(F)(F)CC3)ncc(-c3ccc(C#N)cc3)c2C)c1` [Example 50, (R)-5-(4-cyanophenyl)-2-(4,4-difluoroazepan-1-yl)-4-methyl-N-(3-(S-methyl-N-(methylglycyl)sulfonimidoyl)phenyl)nicotinamide]: the half-inhibitory concentration (IC50) runs as follows: under setting [1], at most 5 nM; under setting [2], at most 5 nM.
For `CNCC(=O)N=[S@](C)(=O)c1cccc(NC(=O)c2c(N3CCCC(F)(F)CC3)ncc(C(F)(F)F)c2C)c1` [Example 194, (R)-2-(4,4-difluoroazepan-1-yl)-4-methyl-N-(3-(S-methyl-N-(methylglycyl)sulfonimidoyl)phenyl)-5-(trifluoromethyl)nicotinamide], the 50% inhibitory concentration (IC50) under setting [1] is at most 5 nM and the concentration for half-maximal inhibition (IC50) under setting [2] is at most 5 nM.
For `Cc1nc(C(F)(F)F)nc(N2CCCC(F)(F)CC2)c1C(=O)Nc1cccc([S@](C)(=N)=O)c1` [Example 135, (R)-4-(4,4-difluoroazepan-1-yl)-6-methyl-N-(3-(S-methylsulfonimidoyl)phenyl)-2-(trifluoromethyl)pyrimidine-5-carboxamide], the IC50 under setting [1] lay in the range of 5 to 50 nM and the half-inhibitory concentration (IC50) under setting [2] is 5 to 50 nM.
As to `CNCC(=O)N=[S@](C)(=O)c1cccc(NC(=O)c2c(N3CCCC(F)(F)CC3)ncc(-c3cnn(C4CC4)c3)c2C)c1` [Example 70, (R)-5-(1-cyclopropyl-1H-pyrazol-4-yl)-2-(4,4-difluoroazepan-1-yl)-4-methyl-N-(3-(S-methyl-N-(methylglycyl)sulfonimidoyl)phenyl)nicotinamide], the IC50 under setting [1] was at most 5 nM and the concentration for half-maximal inhibition (IC50) under setting [2] is at most 5 nM.
Turning to `O=C(Nc1cc[nH]c(=O)c1)c1nnc(C(F)(F)F)cc1N1CCCCCC1` [Example 36, 4-(Azepan-1-yl)-N-(2-oxo-1,2-dihydropyridin-4-yl)-6-(trifluoromethyl)pyridazine-3-carboxamide], the IC50 is above 200 nM under setting [1] and above 200 nM under setting [2].
In the case of `CNCC(=O)N=[S@@](C)(=O)c1cccc(NC(=O)c2c(N3CCCC(F)(F)CC3)nnc(C(F)(F)F)c2C)c1` [Example 44, (S)-3-(4,4-difluoroazepan-1-yl)-5-methyl-N-(3-(S-methyl-N-(methylglycyl)sulfonimidoyl)phenyl)-6-(trifluoromethyl)pyridazine-4-carboxamide], the IC50 runs as follows: under setting [1], 5 to 50 nM; under setting [2], 5 to 50 nM.
As to `Cc1c(-c2cnn(C(C)C)c2)cnc(N2CCCC(F)(F)CC2)c1C(=O)Nc1cccc([S@](C)(=N)=O)c1` [Example 160, (R)-2-(4,4-difluoroazepan-1-yl)-5-(1-isopropyl-1H-pyrazol-4-yl)-4-methyl-N-(3-(S-methylsulfonimidoyl)phenyl)nicotinamide], the IC50 by setting is: under setting [1], 5 to 50 nM; under setting [2], 5 to 50 nM.
For the compound `Cc1c(C(F)(F)F)nnc(N2CCCC(F)(F)CC2)c1C(=O)Nc1cccc(S(=N)(N)=O)c1` (stereo not shown) [Example 115, 3-(4,4-difluoroazepan-1-yl)-5-methyl-N-(3-sulfamidimidoylphenyl)-6-(trifluoromethyl)pyridazine-4-carboxamide], the concentration for half-maximal inhibition (IC50) under setting [1] was at most 5 nM and the IC50 under setting [2] is at most 5 nM.
As for `C=CCCc1ccc(C(=O)Nc2cccc([S@@](C)(=N)=O)c2)c(N2CCCC(F)(F)CC2)n1` [Example 30, (S)-6-(3-Buten-1-yl)-2-(4,4-difluoroazepan-1-yl)-N-(3-(S-methylsulfonimidoyl)phenyl)nicotinamide], the half-inhibitory concentration (IC50) is at most 5 nM under setting [1] and at most 5 nM under setting [2].
For the compound `Cc1c(Br)cnc(N2CCCC(F)(F)CC2)c1C(=O)Nc1cccc([S@@](C)(=O)=NCCN)c1` [Example 209, (R)-N-(3-(N-(2-aminoethyl)-S-methylsulfonimidoyl)phenyl)-5-bromo-2-(4,4-difluoroazepan-1-yl)-4-methylnicotinamide 2,2,2-trifluoroacetate], the IC50 is at most 5 nM under setting [1] and at most 5 nM under setting [2].
For the compound `Cc1nc(-c2cnn(C)c2)nc(N2CCCC(F)(F)CC2)c1C(=O)Nc1cccc([S@](C)(=N)=O)c1` [Example 150, (R)-4-(4,4-difluoroazepan-1-yl)-6-methyl-2-(1-methyl-1H-pyrazol-4-yl)-N-(3-(S-methylsulfonimidoyl)phenyl)pyrimidine-5-carboxamide], the IC50 runs as follows: under setting [1], 100 to 200 nM; under setting [2], 100 to 200 nM.
Turning to `C[S@@](=N)(=O)c1cc(NC(=O)c2cc(Cl)c(C(F)(F)F)cc2N2CCO[C@H](C(F)(F)F)C2)ccn1` [Example 218, 5-chloro-N-(2-((R)—S-methylsulfonimidoyl)pyridin-4-yl)-4-(trifluoromethyl)-2-((S)-2-(trifluoromethyl)morpholino)benzamide], the IC50 by setting is: under setting [1], 5 to 50 nM; under setting [2], 5 to 50 nM.
Turning to `NC(=O)c1cccc(NC(=O)c2nnc(C(F)(F)F)cc2N2CCCC(F)(F)CC2)c1` [Example 38, N-(3-Carbamoylphenyl)-4-(4,4-difluoroazepan-1-yl)-6-(trifluoromethyl)pyridazine-3-carboxamide], the IC50 was above 200 nM under setting [1] and above 200 nM under setting [2].
For `Cc1c(C(=O)Nc2cccc([S@@](C)(=O)=NC(=O)[C@@H]3CCCN3)c2)c(N2CCCC(F)(F)CC2)nc(C(F)(F)F)c1-c1cnn(C)c1` [Example 190, N-(3-((R)-N-(L-prolyl)-S-methylsulfonimidoyl)phenyl)-2-(4,4-difluoroazepan-1-yl)-4-methyl-5-(1-methyl-1H-pyrazol-4-yl)-6-(trifluoromethyl)nicotinamide], the IC50 reads like this: under setting [1], at most 5 nM; under setting [2], at most 5 nM.
In the case of `CS(=N)(=O)c1cccc(NC(=O)c2nnc(C(F)(F)F)cc2N2CCCCCC2)c1` (stereo not shown) [Example 9, 4-(azepan-1-yl)-N-(3-(S-methylsulfonimidoyl)phenyl)-6-(trifluoromethyl)pyridazine-3-carboxamide], the half-inhibitory concentration (IC50) runs as follows: under setting [1], above 200 nM; under setting [2], above 200 nM.
As for `Cc1c(-c2cnn(C)c2)cnc(N2CCCC(F)(F)CC2)c1C(=O)Nc1cccc(S(=N)(N)=O)c1` (stereo not shown) [Example 165, 2-(4,4-difluoroazepan-1-yl)-4-methyl-5-(1-methyl-1H-pyrazol-4-yl)-N-(3-sulfamidimidoylphenyl)nicotinamide], the IC50 under setting [1] was in the range of 5 to 50 nM and the IC50 under setting [2] lay in the range of 5 to 50 nM.
Take `Cc1c(-c2cccnc2)cnc(N2CCCC(F)(F)CC2)c1C(=O)Nc1cccc(S(C)(=N)=O)c1` (stereo not shown) [Example 84, 6-(4,4-difluoroazepan-1-yl)-4-methyl-N-(3-(S-methylsulfonimidoyl)phenyl)-[3,3bipyridine]-5-carboxamide]: the IC50 runs as follows: under setting [1], 5 to 50 nM; under setting [2], 50 to 100 nM.
For `Cc1c(-c2ccc(C(F)F)cc2)nnc(N2CCCC(F)(F)CC2)c1C(=O)Nc1cccc([S@](C)(=N)=O)c1` [Example 167, (R)-3-(4,4-difluoroazepan-1-yl)-6-(4-(difluoromethyl)phenyl)-5-methyl-N-(3-(S-methylsulfonimidoyl)phenyl)pyridazine-4-carboxamide], the half-inhibitory concentration (IC50) under setting [1] fell in the range of 5 to 50 nM and the concentration for half-maximal inhibition (IC50) under setting [2] lay in the range of 5 to 50 nM.
On to `Cc1c(C(F)(F)F)nnc(N2CCCC(F)(F)CC2)c1C(=O)Nc1cccc([S@@](C)(=O)=NC(=O)C2(N)CCC2)c1` [Example 234, (R)-N-(3-(N-(1-aminocyclobutane-1-carbonyl)-S-methylsulfonimidoyl)phenyl)-3-(4,4-difluoroazepan-1-yl)-5-methyl-6-(trifluoromethyl)pyridazine-4-carboxamide], for which the 50% inhibitory concentration (IC50) under setting [1] was at most 5 nM and the 50% inhibitory concentration (IC50) under setting [2] was at most 5 nM.
On to `Cc1c(-c2ccccn2)cnc(N2CCCC(F)(F)CC2)c1C(=O)Nc1cccc(S(C)(=N)=O)c1` (stereo not shown) [Example 99, 6 C(4,4-difluoroazepan-1-yl)-4methyl-N-(3-(S-methylsulfonimidoyl)phenyl)-[2,3bipyridine]-5carboxamide], for which the half-maximal inhibitory concentration (IC50) is, setting by setting: under setting [1], 100 to 200 nM; under setting [2], 100 to 200 nM.
In the case of `Cc1c(C(=O)Nc2cccc([S@@](C)(=O)=NC(=O)[C@@H](C)O)c2)c(N2CCCC(F)(F)CC2)nc(C(F)(F)F)c1-c1cnn(C)c1` [Example 236, 2-(4,4-difluoroazepan-1-yl)-N-(3-((R)-N-((R)-2-hydroxypropanoyl)-S-methylsulfonimidoyl)phenyl)-4-methyl-5-(1-methyl-1H-pyrazol-4-yl)-6-(trifluoromethyl)nicotinamide], the 50% inhibitory concentration (IC50) reads like this: under setting [1], at most 5 nM; under setting [2], at most 5 nM.
Take `Cc1c(C(=O)Nc2cccc([S@](C)(=N)=O)c2)c(N2CCCC(F)(F)CC2)nc(C(F)(F)F)c1-c1ccc(C#N)cc1` [Example 131, (R)-5-(4-cyanophenyl)-2-(4,4-difluoroazepan-1-yl)-4-methyl-N-(3-(S-methylsulfonimidoyl)phenyl)-6-(trifluoromethyl)nicotinamide]: the IC50 is at most 5 nM under setting [1] and at most 5 nM under setting [2].
For `Cc1c(-c2ccccc2)cnc(N2CCCC(F)(F)CC2)c1C(=O)Nc1cccc([S@](C)(=N)=O)c1` [Example 122, (R)-2-(4,4-difluoroazepan-1-yl)-4-methyl-N-(3-(S-methylsulfonimidoyl)phenyl)-5-phenylnicotinamide], the IC50 runs as follows: under setting [1], at most 5 nM; under setting [2], at most 5 nM.
